From patent publication EP4464318A1, “TARGETING TGF-B-ACTIVATED KINASE-1 ACTIVATION IN THE TREATMENT OF NEUROINFLAMMATORY CONDITIONS” (Albert-Ludwigs-Universität Freiburg, priority 2023, dated 2024)

Columns and labels:
[1] = test system: B-NHL (A20) cells; assay: Co-culture of B-NHL (A20) cells with NT or CD19 CAR T cells in vitro; type: cell-based; conditions: co-culture E:T 5:1, 10µM takinib or vehicle (Fig. 8c)
Experimental: A20 Luc^+ GFP^+ cells were stained with cell trace violet as per the manufacturer's instructions (Life Technologies). A20 Luc^+ GFP^+ cells and CD19 CAR T cells were incubated at ratios 1:1, 2:1, 5:1, and 10:1 for 16h at 37° C. Following incubation, cells were harvested and stained with live/dead far red fixable viability stain (Invitrogen).
(§1) B-NHL cells were labelled with cell trace violet (Invitrogen) as per the manufacturer's instructions. B-NHL cells and NT or CD19 CAR T cells were cultured with 0:1, 1:1, 1:5 and 1:10 ratios for 16-20h. Post-incubation cells were washed and stained for live dead zombie stain and specific lysis was calculated. For analyzing the expression of T cell markers, B-NHL and NT or CD19 CAR T cells were co-cultured at a ratio of 1:5 for 16-20h and treated with either 10µM of takinib or vehicle.

[2] = test system: B-ALL (E2A-PBX1) bearing mice; assay: Survival of B-ALL (E2A-PBX1) bearing mice that received CD19 CAR T cells; type: in vivo
Experimental: (§2) Mice were treated with either takinib (Selleckchem, Germany) or vehicle after B-NHL or B-ALL transplantation. For the treatment, stocks of 3 mg/ml and 10 mg/ml of takinib were prepared in DMSO. The stocks were diluted in 0.5% carboxymethylcellulose solution (vehicle) and administered by intraperitoneal injection at a dosage of 0.15 mg/kg (takinib-FACS) and 0.5 mg/kg (survival and behaviour studies) per mouse per day from day 3 to day 9 following either B-NHL or B-ALL transplant, as described previously (13a). An equal volume of corresponding vehicles was administrated to the control groups daily from day 3 until day 9. For survival expriments, 0.5 mg/kg takinib or vehicle per mouse per day was administered intraperitonially from day 3 to day 11 following either B-NHL or B -ALL transplant, as described previously.
(§3) The E2A-PBX1 cell line (15a) was provided by Dr. Federico Simonetta (Stanford, USA). […] The mice were perfused with ice cold PBS on day 10 and the CNS was analysed. […]
(§4) For sample size in the murine survival experiments a power analysis was performed. A sample size of at least n=8 per group was determined by 80% power to reach a statistical significance of 0.05 in order to detect an effect size of at least 1.06. Differences in animal survival (Kaplan-Meier survival curves) were analyzed by Mantel Cox test. […]

[3] = test system: B-ALL (E2A-PBX1) bearing mice treated with CD19 CAR T cells; assay: Grip strength test; type: in vivo
Experimental: as §2
(§5) The E2A-PBX1 cell line (15a) was provided by Dr. Federico Simonetta (Stanford, USA). C57BI/6 recipients were sublethally irradiated with 5.5 Gy and transplanted with 2×10^5 E2A-PBX1 cells intravenously. […] The mice were perfused with ice cold PBS on day 10 and the CNS was analysed. […]
Mice received PLX5622 (CSF1R inhibitor) chow or control chow (Research Diets) for 7 days prior to the experiment to achieve microglial depletion. […] The effectiveness of microglia depletion was determined by flow cytometry. […]

[4] = test system: B-ALL (E2A-PBX1) bearing mice treated with CD19 CAR T cells; assay: BBB leakage (FITC-dextran extravasation) in the CNS; type: in vivo
Experimental: as §2, §5
(§6) Mice received PLX5622 (CSF1R inhibitor) chow or control chow (Research Diets) for 7 days prior to the experiment to achieve microglial depletion. […] The effectiveness of microglia depletion was determined by flow cytometry.

[5] = test system: B-NHL (A20) bearing mice; assay: Survival of B-NHL (A20) bearing mice that received CD19 CAR T cells; type: in vivo
Experimental: as §2
A20 Luc^+ GFP^+ immortalized murine lymphoma cell lines were used to induce B-NHL in mice. […] The mice were perfused with Ice cold PBS on day 10 and CNS was analysed. […]
as §4

[6] = test system: B-NHL (A20) cells; assay: Viability of B-NHL (A20) cells, 24h; type: cell-based, murine; conditions: indicated concentrations of takinib, 24h (Fig. 28a)
[7] = test system: microglia (CD45lo CD11b+); assay: Flow cytometry of microglia from the CNS of B-NHL (A20) bearing mice treated with CD19 CAR T cells; type: in vivo
Experimental: as §2
(§7) A20 Luc^+ GFP^+ immortalized murine lymphoma cell lines were used to induce B-NHL in mice. BALB/c recipients were sublethally irradiated with 4.5 Gy and transplanted with 1×10^6 A20 Luc^+ GFP^+ intravenously. 7 days later 10×10^6 syngeneic CD19 CAR T cells generated from BALB/c mice were administered. The mice were perfused with Ice cold PBS on day 10 and CNS was analysed. For survival experiments BALB/c recipients were sublethally irradiated with 4.5 Gy and transplanted intravenously with 1×10^5 A20 Luc^+ GFP^+ cells. Seven days later 5×10^6 syngeneic CD19 CAR T cells from BALB/c mice were administered. Tumor burden was checked by bioluminescence imaging.
(§8) The CNS cells were isolated as described previously (20a) with modifications. Briefly, the mice were anesthetized and were perfused with 1X cold PBS. The CNS was isolated, homogenized and filtered through a 70 µm nylon filter. The homogenate was suspended in 37% isotonic Percoll solution and centrifuged at 800 × g for 30 min without a break in application. The myelin layer was removed from the top of 37% Percoll and the pelleted cells were washed with 1X PBS for further analysis.

[8] = test system: B-NHL (A20); assay: B-NHL (A20) lymphoma burden in vivo (bioluminescence, CD19+ cells in bone marrow); conditions: CAR19/takinib vs CAR19/vehicle treated mice (Fig. 8a,b)
Experimental: as §2
as §7, with “Seven days later 5×10^6 syngeneic CD19 CAR T cells from BALB/c mice were administered. Tumor burden was checked by bioluminescence imaging.” left out

[9] = test system: B-ALL (E2A-PBX1) cells; assay: Viability of B-ALL (E2A-PBX1) cells, 24h; type: cell-based, murine; conditions: indicated concentrations of takinib, 24h (Fig. 28b)
[10] = test system: NK1.1+, CD45+, CD11b+ and CD3+ cells; assay: Immune cell counts in spleen and BM of B-NHL (A20) bearing mice that received CD19 CAR T cells; type: in vivo; conditions: takinib i.p. day 3 to day 9 vs vehicle (Fig. 24, 25)
Experimental: as §2
as §7, with “Seven days later 5×10^6 syngeneic CD19 CAR T cells from BALB/c mice were administered. Tumor burden was checked by bioluminescence imaging.” left out

[11] = test system: CD19 CAR T cells; assay: T cell markers and T cell viability in co-culture of B-NHL and NT/CD19 CAR T cells; type: cell-based
Experimental: as §1

[12] = target: T1, TAK1 (Homo sapiens, UniProt O43318); conditions: cited from earlier work
T1 sequence (O43318 1-606): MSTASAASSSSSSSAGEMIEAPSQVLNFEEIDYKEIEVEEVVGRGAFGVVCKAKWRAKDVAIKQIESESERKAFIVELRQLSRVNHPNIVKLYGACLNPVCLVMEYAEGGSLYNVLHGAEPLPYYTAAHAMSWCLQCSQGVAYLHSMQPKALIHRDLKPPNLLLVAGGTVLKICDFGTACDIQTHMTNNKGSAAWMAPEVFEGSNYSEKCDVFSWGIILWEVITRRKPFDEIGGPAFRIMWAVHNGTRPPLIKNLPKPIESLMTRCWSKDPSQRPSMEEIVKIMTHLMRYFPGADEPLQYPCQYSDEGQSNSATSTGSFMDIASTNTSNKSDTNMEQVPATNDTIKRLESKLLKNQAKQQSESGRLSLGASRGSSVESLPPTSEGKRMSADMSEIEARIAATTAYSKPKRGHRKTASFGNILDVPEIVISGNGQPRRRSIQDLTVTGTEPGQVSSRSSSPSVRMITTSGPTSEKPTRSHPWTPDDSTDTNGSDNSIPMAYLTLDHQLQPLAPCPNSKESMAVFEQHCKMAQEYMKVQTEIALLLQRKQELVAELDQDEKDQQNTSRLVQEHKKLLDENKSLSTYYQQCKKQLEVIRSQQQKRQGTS

[13] = test system: B-ALL (E2A-PBX1) bearing mice treated with CD19 CAR T cells; assay: Novel object recognition test; type: in vivo; conditions: CAR19 T cells, CSF1R inhibitor diet vs control diet, from one week prior to tumor injection (Fig. 4)
Experimental: as §2, with “For survival expriments, 0.5 mg/kg takinib or vehicle per mouse per day was administered intraperitonially from day 3 to day 11 following either B-NHL or B -ALL transplant, as described previously.” left out
as §3, §6
Novel object recognition test was performed as described previously with modifications (17a). […] The amount of time spent by the mouse exploring the novel object to the total exploration time is calculated as an index of recognition memory.

[14] = test system: microglia (CD45lo CD11b+); assay: Microglial depletion: flow cytometry of CNS cells of B-ALL bearing mice; type: in vivo
Experimental: (§9) Mice received PLX5622 (CSF1R inhibitor) chow or control chow (Research Diets) for 7 days prior to the experiment to achieve microglial depletion. C57BI/6 mice were irradiated with 5.5 Gy and transplanted with 2×10^5 E2A-PBX1 cell lines. 10×10^6 CD19 CAR T were injected on day 7 and behaviour studies were performed on day 10. Mice were maintained on PLX5622 chow or control chow throughout the duration of the experiment. The effectiveness of microglia depletion was determined by flow cytometry.
as §8

[15] = test system: B-ALL (E2A-PBX1); assay: Tumor burden and myeloid cells in spleen and BM of B-ALL bearing mice on CSF1R inhibitor diet; type: in vivo
Experimental: as §9

[16] = test system: B-ALL (E2A-PBX1) bearing mice treated with CD19 CAR T cells; assay: Elevated plus maze test; type: in vivo; conditions: CAR19 T cells, CSF1R inhibitor diet vs control diet, from one week prior to tumor injection (Fig. 4)
Experimental: as §2, §3, §6
We performed the elevated plus maze test to evaluate the anxiety behaviour in mice as described previously with minor modifications (18a). […] We quantified the time they spent in the open arm in minutes. […]

## CCCn1/c(=N/C(=O)c2cccc(C(N)=O)c2)[nH]c2ccccc21 [Takinib]
[1]
  cytotoxicity against B-NHL (A20) in vitro: increased cytotoxicity
[2]; CAR19/takinib vs CAR19/vehicle, E2a-PBX1 model, 0.5 mg/kg i.p. (Fig. 8f)
  survival: increased
[3]; CAR19 T cells + takinib vs vehicle (Fig. 6l)
  grip strength: no difference
[4]; B-ALL (E2A-PBX1) bearing mice after CAR19 T cell transfer, takinib vs vehicle (Fig. 6m, 26a)
  BBB leakage in the cortex: trend towards a lower BBB leakage
[5]; CAR19/takinib vs CAR19/vehicle treated B-NHL bearing mice, 0.5 mg/kg i.p. (Fig. 8d)
  survival: survived longer
[6]
  cell death of B-NHL (A20) cells: dose-dependent cell death
[7]; takinib 0.15 mg/kg per mouse per day i.p. day 3 to day 9 vs vehicle (Fig. 6b,c)
  expression of TNF in microglia: reduced expression
[7]; takinib 0.15 mg/kg per mouse per day i.p. day 3 to day 9 vs vehicle (Fig. 6f,g)
  p38 phosphorylation in microglia: reduced
[7]; takinib 0.15 mg/kg per mouse per day i.p. day 3 to day 9 vs vehicle (Fig. 6d,e)
  expression of GM-CSF in microglia: reduced expression
[7]; takinib 0.5 mg/kg per mouse per day i.p. day 3 to day 9 vs vehicle (Fig. 6h,i)
  p70s6K total protein in microglia: reduced
[8]
  B-NHL (A20) lymphoma burden: decreased
[9]
  cell death of B-ALL (E2A-PBX1) cells: dose-dependent cell death
[10]
  myeloid cell, T cell or NK cell counts in the periphery: did not reduce
[11]; CD3+ T cells, co-culture 1:5, 10µM takinib or vehicle (Fig. 29a-g)
  markers of cytotoxicity including perforin, CD107a, IFN-y, and TNF: remained unaffected
[11]; co-culture with B-NHL (A20), 10µM takinib or vehicle (Fig. 29h)
  viability of CAR19 or NT T cells: remained unaffected

## COCCN1CCN(Cc2ccc(-c3n[nH]c4c3C(=O)c3c(NC(=O)NN5CCOCC5)cccc3-4)cc2)CC1 [RGB-286638 free base]
[12]
  IC50: 5 nM

## CCCn1c(NC(=O)c2cccc(C(N)=O)c2)nc2ccc(CN3CCCCC3)cc21 [HS-276]
[12]
  IC50: 2.3 nM
  Ki: 2.5 nM

## C[C@]12C=CC(=O)C=C1CC[C@@H]1[C@@H]2[C@@H](O)C[C@@]2(C)[C@H]1CC[C@]2(O)C(=O)CO [prednisolone]
[2]; B-ALL (E2a-PBX1) bearing mice, prednisolone day 3 to day 9 (Fig. 8g)
  protective effect of CAR19 T cells against leukemia expansion: reduced
[5]; B-NHL (A20) bearing mice, prednisolone day 3 to day 9 (Fig. 8e)
  protective effect of CAR19 T cells against lymphoma growth: reduced

## COc1ncc(F)cc1CNc1ccc(Cc2c[nH]c3ncc(C)cc23)c(F)n1 [PLX5622]
[13]
  neurocognitive deficits, novel object recognition test: improved neurocognitive deficits
[14]; PLX5622 diet day -7 to day 10 vs control (Fig. 21b-d)
  microglia numbers: declined
[14]; PLX5622 diet vs control diet (Fig. 21e-g)
  CD45hi, Ly6G+ and Ly6C+ myeloid cells infiltrating the CNS: no significant changes
[15]; CSF1R inhibitor diet vs control diet (Fig. 22c,d)
  Ly6C+ and F4/80+ myeloid cells in the spleen: no impact
[15]; CSF1R inhibitor prior to CAR19 T cell transfer vs vehicle-treated mice (Fig. 22a,b)
  lymphoma burden in spleen and BM: did not reduce
[16]
  neurocognitive deficits, elevated plus maze test: improved neurocognitive deficits
[3]; CAR19 T cells, CSF1R inhibitor diet vs control diet (Fig. 4)
  grip strength: no difference
[4]; CAR19 T cell-treated mice, CSF1R inhibitor (PLX5622) diet vs control diet (Fig. 23)
  BBB leakage: did not reduce
